Experimental data from patent US20220002772A1, “METHOD FOR PRODUCING ALLOLACTOSE” (priority 2019, published 2022).

Key:
[1] = tested on: lac promoter on the pUC19 plasmid; experiment: Lac promoter inducibility with DasherGFP reporter (JM109+pUC-DGFP-PtI strain); assay type: cell-based, E. coli JM109; details: allolactose at 0.0075 mM in LB agar medium, 37° C. overnight, UV illuminator
Description: It is assumed that since blue coloration of the degradation product of X-gal by beta-galactosidase (LacZ) was used as the evaluation index in the evaluation in (6) above, allolactose was degraded by beta-galactosidase (LacZ), which is the reporter gene, and as a result the lac promoter inducibility of allolactose was attenuated under conditions with allolactose concentrations of 0.0075 to 0.015 mM.
PCR was performed by using FPB-27-441 plasmid (Cosmo Bio) as the template and primers of SEQ ID NOS: 5 and 6, to amplify a gene fragment encoding DasherGFP. Separately, PCR was performed by using a plasmid pUC19 plasmid (Takara Bio) as the template and primers of SEQ ID NOS: 7 and 8, to amplify an outside fragment of the plasmid. The PCR products were each purified by using Wizard SV Gel and PCR Clean-Up System (Promega). In-Fusion HD Cloning Kit (Takara Bio) was used to ligate the purified PCR products. E. coli JM109 was transformed with the reaction product, and cultured on LB agar medium containing 50 mg/L ampicillin at 37° C. overnight, to form colonies, to thereby obtain a transformant. A plasmid pUC19-DGFP, in which LacZα gene has been replaced with DasherGFP gene, was obtained from the obtained transformant by using Wizard Plus Miniprep System (Promega). […]

[2] = tested on: lac promoter on the pUC19 plasmid; experiment: Lac promoter inducibility by Blue-White screening method (JM109+pUC19 strain, X-Gal plates); assay type: cell-based, E. coli JM109; set-up: key to Blue coloration of formed colonies of JM109 + pUC19 strain: “x (cross)” indicates no blue coloration; “Δ (triangle)” indicates unclear blue coloration; “∘ (circle)” indicates clear blue coloration
Description: The lac promoter inducibility of allolactose was evaluated by the Blue-White screening method using E. coli JM109 and pUC19 plasmid.
Competent cells of E. coli JM109 (Takara Bio) were transformed with pUC19 plasmid (Takara Bio), and cultured on LB agar medium containing 50 mg/L ampicillin at 37° C. overnight, to form colonies. The formed colonies were streaked on LB agar medium containing 50 mg/L ampicillin, and single colonies were obtained, to thereby obtain a strain JM109+pUC19. […] Beta-galactosidase activity of the strain JM109 is lost unless alpha-complementarity is exerted.
The reaction mixture containing 55.8 g/L of allolactose obtained in (4) above was subjected to heating at 95° C. for 10 minutes to inactivate the enzyme, and the supernatant was passed through a 0.22 μm pore size filter, to obtain an allolactose solution. The obtained allolactose solution was diluted according to the dilution factors listed in Table 4 and added to LB agar media, and X-Gal (Thermo Fisher Scientific) was further added, to prepare LB agar media for Blue-White screening containing various concentrations of allolactose and X-gal. X-gal is degraded by beta-galactosidase, and the degradation product thereof, 4-chloro-3-bromo-indigo, provides blue coloration.
The JM109+pUC19 strain was streaked on each LB agar medium for Blue-White screening and cultured at 37° C. overnight, and the coloration of single-isolated colonies was observed.

lac promoter = experiment: Lac promoter inducibility in pET expression system (GH1-2 protein expression, SDS-PAGE, strain EcGHH6); assay type: cell-based, E. coli Rosetta 2(DE3)pLysS; details: liquid culture
Description: The lac promoter inducibility of allolactose was evaluated using the inducibility of pET expression system, which is commonly used for heterologous protein production, as an indicator. In the pET expression system, T7-polymerase, which is inducibly expressed from the lac promoter, highly expresses a gene downstream of the T7 promoter (e.g. a gene encoding a heterologous protein). As the heterologous protein to be produced, beta-galactosidase gene of a filamentous fungus Talaromyces cellulolyticus (hereinafter, also referred to as “gh1-2 gene”) was used.
RNA was prepared form cells of the T. cellulolyticus strain Y-94 (CBS 136886) by using RNeasy Plant Mini Kit (QIAGEN), and a full-length cDNA solution was prepared form the RNA solution by using SMARTer® RACE 5′/3′ kit. PCR was performed by using the cDNA solution as the template and primers of SEQ ID NOS: 13 and 14, to amplify a cDNA fragment of gh1-2 gene. Separately, PCR was performed by using a plasmid pET24a (Novagen) as the template and primers of SEQ ID NOS: 3 and 4, to amplify an outside fragment of the plasmid. The PCR products were each purified by using Wizard SV Gel and PCR Clean-Up System (Promega). In-Fusion HD Cloning Kit (Takara Bio) was used to ligate the purified PCR products. […]

OC[C@H]1O[C@@H](OC[C@H]2OC(O)[C@H](O)[C@@H](O)[C@@H]2O)[C@H](O)[C@@H](O)[C@H]1O (some centres unmarked) [allolactose]
Fluorescent coloration of colonies (DasherGFP expression from lac promoter) [1]: fluorescent coloration of the colonies of the JM109+pUC-DGFP-PtI strain was observed | Blue coloration of colonies (lac promoter inducibility) ([2]; allolactose concentrations of 0.0075 to 0.015 mM): blue coloration was obscured | Blue coloration of colonies, i.e. induction of gene expression from the lac promoter ([2]; allolactose concentrations of 0.03 to 1.5 mM): blue coloration of colonies was observed | Blue coloration of formed colonies of JM109 + pUC19 strain ([2]; final concentration of allolactose in plate media 0.0075 mM (dilution factor 21736)): Δ | Blue coloration of formed colonies of JM109 + pUC19 strain ([2]; final concentration of allolactose in plate media 0.015 mM (dilution factor 10868)): Δ | Blue coloration of formed colonies of JM109 + pUC19 strain ([2]; final concentration of allolactose in plate media 0.03 mM (dilution factor 5434)): ∘ | Blue coloration of formed colonies of JM109 + pUC19 strain ([2]; final concentration of allolactose in plate media 0.075 mM (dilution factor 2174)): ∘ | Blue coloration of formed colonies of JM109 + pUC19 strain ([2]; final concentration of allolactose in plate media 0.15 mM (dilution factor 1087)): ∘ | Blue coloration of formed colonies of JM109 + pUC19 strain ([2]; final concentration of allolactose in plate media 0.3 mM (dilution factor 543)): ∘ | Blue coloration of formed colonies of JM109 + pUC19 strain ([2]; final concentration of allolactose in plate media 1.5 mM (dilution factor 109)): ∘ | Blue coloration of formed colonies of JM109 + pUC19 strain ([2]; final concentration of allolactose in plate media 3 mM (dilution factor 54)): Δ | Blue coloration of formed colonies of JM109 + pUC19 strain ([2]; final concentration of allolactose in plate media 15 mM (dilution factor 11)): x | Expression level of heterologous protein (GH1-2) (lac promoter; allolactose concentrations below 0.1 mM): decreased | Expression of heterologous protein (GH1-2) compared with induction by 1 mM IPTG (lac promoter; allolactose final concentration 0.1 mM, 13° C., 14 hours): almost equally
